One assay concerns cox-2 promoter. In words: Luciferase activity in stable Jurkat-1906LUC clones (Jurkat-C3-, F9-, C7-1906LUC).
The test system of assay [1] is endogenous cox-2 gene (mRNA of cox-2). In words: RT-PCR analysis of the expression of cox-2 mRNA in Jurkat cells. To be noted: PMA 10 ng/ml alone or with calcium ionophore A23187 1 μM, FIG. 3(A). Type of assay: cell-based, human. As for the experimental part: In order to study the regulation of the expression of the endogenous cox-2 gene in the Jurkat cell line, the analysis of the expression of its mRNA was performed by experiments with RT-PCR. At the same time, in order to validate the prom2-1906-LUC construct and to check that the regulation of the cloned promoter is as expected, experiments were carried out of transitory transfection of the prom2-1906-LUC construct using the Jurkat cell line. In both experiments, the cells were treated with compounds that stimulate and inhibit the induction of the promoter of cox-2.
Treatment with activator compounds were carried out using the phorbol ester PMA (Phorbol 12-Myristate 13-Acetate) (10 ng/ml) (Sigma) and the combination of PMA and Calcium ionophore A23187 (1 μM) (Sigma), hereinafter PMA+Ion.
Treatment with drugs that inhibit the induction by PMA+Ion were carried out with cyclosporin A (CsA) (100 ng/ml) or the synthetic glucocorticoide Dexamethasone (Dex) (1 μM) (Sigma).
The results obtained from the analysis by RT-PCR of the expression of mRNA of cox-2 in Jurkat cells are presented in FIG. 3, where the following can be observed:
As a control in both cases, the result obtained for the non-inducible mRNAs of the cox-1 isoform and for the glycerol aldehyde phosphate dehydrogenase (GAPDH) are shown.

The text below walks through data of patent US20040152126A1, “Methods of screening for cox-2 inhibitors” (priority 1999, published 2004).

Description for cox-2 promoter: The transfection was carried out by means of the technique of electroporation in cuvettes of 0.4 cm (BioRad) with 15×10^6 cells in 0.5 ml of complete medium [RMPI medium supplemented with 10% of foetal serum, L-glutamine 2mM and a mixture of antibiotics] […] After this period, the cells were electroporated in a Gene Pulser II (BioRad) apparatus at 1.500 μFaradays of capacitance and a current of 280 V. Next, the cells were incubated over ice for 10 minutes before adding 10 ml of complete medium. The cells were cultured in this medium in 75 cm^2 culture flasks (Nunc) for 48 hours in a cell incubator at 37° C. with a humidity of 95% and 5% of Co2. At this time, the medium was changed for complete medium with no antibiotics to which hygromycin (Boehringer Mannheim) was added at a concentration of 200 μg/ml. The cells were cultured in this medium for 30 days with successive changes of medium. […] For this, 1×10^6 cells were lysed in 50 μl of lysis buffer (Promega) and with the extracts obtained, the luciferase activity was determined using the reagents contained in the kit of the “Luciferase Assay System” [Promega].
These clones were grown until obtaining at least 1×10^6 cells with which measurement of the luciferase activity could be performed as described earlier. […]

As for `CCCCCCCCCCCCCC(=O)O[C@@H]1[C@@H](C)[C@@]2(O)[C@@H](C=C(CO)C[C@]3(O)C(=O)C(C)=C[C@@H]23)[C@@H]2C(C)(C)[C@]12OC(C)=O` [PMA, Phorbol 12-Myristate 13-Acetate], the “increase of the basal values of luciferase activity” value with cox-2 promoter (three stable clones, treatment of 6 hours, FIG. 7) lay within 3 to 6 times. For the same compound, the “expression of the mRNA of cox-2” value in assay [1] is “slight increase”. As to `Oc1ccc(C=Cc2cc(O)cc(O)c2)cc1` [Resveratrol], the “inhibition of the stimulation obtained with PMA+Ion (luciferase activity)” value in the assay with cox-2 promoter (stable Jurkat clones, 1 hour pre-treatment with compound, then PMA+Ion for 5 hours, FIGS. 8-10) is given as “produces an inhibition of the stimulation obtained with PMA+Ion”.
